Experimental data from PubChem BioAssay AID1963862 (Molecular Pharmacology Branch, DTP, NCI, 2024).
pIC50: −log10 of the molar value.

Test system: KRAS patient-derived spheroids with HUVEC/MSC, viability
Assay: Anticancer human tumor 941728-121-R-J1-PDC patient-derived lung adenocarcinoma cell line growth inhibition [KRAS2]
Conditions: for pIC50: curve of first compound; for viability, T/C: stronger effect = lower value
Excerpt: Multicellular complex tumor spheroid response to RAS pathway inhibitors in combination with a targeted agents in patient-derived cell lines with oncogenic KRAS variants from multiple cancer types
A high-throughput screen of multi-cell type tumor spheroids was designed to identify active combinations of targeted small molecules and KRAS pathway inhibitors. Complex spheroids include a stromal component modeled by human endothelial cells (HUVEC) and fibroblasts modeled by human mesenchymal stem cells (MSCs). The concentration ranges selected for each drug and investigational agent were based upon clinically achievable concentrations if the clinical Cmax of the agent was known.
Compounds. The drugs and investigational agents: BI-3406 (NSC825286), BAY-293 (NSC824723), batoprotafib (TNO155; NSC825523), sotorasib (AMG 510; NSC818433), MRTX1257 (NSC819558), elimusertib (BAY 1895344; NSC800525), molibresib (GSK525762; NSC774829), temuterkib (LY3214996; NSC803410), venetoclax (NSC766270), alisertib (NSC759677), olaparib (NSC753686), talazoparib (NSC767125), erdafitinib (NSC781556), ipatasertib (NSC767898), cabozantinib (NSC761068), nintedanib (NSC756659), abemaciclib (NSC768073), docetaxel (NSC628503), trametinib (NSC758246), and sapanisertib (NSC764658) were obtained from the National Cancer Institute (NCI) Developmental Therapeutics Program Chemical Repository. The FDA-approved anticancer drug set is available from the Developmental Therapeutics Program. […] The stock solutions were prepared in dimethyl sulfoxide (DMSO, Sigma-Aldrich, St. Louis, MO, cat. D2650) at 800-fold the tested concentration and stored at -70 degrees C prior to their use. All drugs and investigational agents were tested over a range starting from a high concentration at or near the clinical Cmax and decreasing in half-log increments. If the clinical Cmax for an agent had not been determined, the highest concentration tested was 10 microM.
Cell Culture. All cells were maintained in an incubator at 37 degrees C and 5% CO2 with 95% humidity. The PDC lines were cultured according to standard operating procedures established by the NCI PDMR (https://pdmr.cancer.gov/sops/default.htm). Briefly, all PDCs were thawed and cultured in Matrigel-coated flasks prepared with a working solution of 1X Ham's F-12 nutrient mix, without supplementation (Invitrogen, Waltham, MA, cat. 11765054), 100 U/mL penicillin-streptomycin (Invitrogen, cat. 15140122), and 2.5% Matrigel (Corning Inc., Corning, NY, cat. 354248) for the first three passages. All PDCs were cultured in complete DMEM/F-12 media containing advanced DMEM/F-12 (Invitrogen, cat. 12634028), 4.9% defined fetal bovine serum, heat inactivated (HyClone Laboratories Inc., Logan, UT, cat. SH30070.03HI), 389 ng/mL hydrocortisone (Sigma-Aldrich, cat. H4001), 9.7 ng/mL human EGF recombinant protein (Invitrogen, cat. PHG0313), 23.4 microg/mL adenine (Sigma-Aldrich, cat. A2786), 97.3 U/mL penicillin-streptomycin (Invitrogen, cat. 15140122), 1.9 mM L-glutamine (Invitrogen, cat. 25030081), and 9.7 microM Y-27632 dihydrochloride (Tocris Bioscience, Bristol, United Kingdom, cat. 1254). The PDCs were cultured in complete DMEM/F12 media without 9.7 microM Y-27632 dihydrochloride for at least two passages prior to the screen. The established cell line HOP-62 was cultured in RPMI 1640 medium, HEPES (Invitrogen, cat. 22400105) with 10% defined fetal bovine serum (HyClone Laboratories Inc., cat. SH30070.03) and 2 mM L-glutamine (Invitrogen, cat. 25030081). The pooled donor HUVEC were cultured in endothelial cell growth medium 2 (PromoCell, Heidelberg, Germany, cat. C-22011) and the hMSC were cultured in mesenchymal stem cell growth medium 2 (PromoCell, cat. C-28009). For all experiments, HUVEC and hMSC were used at passages </=5, while the malignant cell lines were used at passages </=15. […]

[1] = second compound 0.1 µM, first compound 0.0316 µM
[2] = second compound 0.1 µM, first compound 0.1 µM
[3] = second compound 0.1 µM, first compound 0.316 µM
[4] = second compound 0.1 µM, first compound 1 µM
[5] = second compound 0.1 µM, first compound 3.16 µM
[6] = second compound 0.316 µM, first compound 0.0316 µM
[7] = second compound 0.316 µM, first compound 0.1 µM
[8] = second compound 0.316 µM, first compound 0.316 µM
[9] = second compound 0.316 µM, first compound 1 µM
[10] = second compound 0.316 µM, first compound 3.16 µM
[11] = second compound 1 µM, first compound 0.0316 µM
[12] = second compound 1 µM, first compound 0.1 µM
[13] = second compound 1 µM, first compound 0.316 µM
[14] = second compound 1 µM, first compound 1 µM
[15] = second compound 1 µM, first compound 3.16 µM
[16] = second compound 3.16 µM, first compound 0.0316 µM
[17] = second compound 3.16 µM, first compound 0.1 µM
[18] = second compound 3.16 µM, first compound 0.316 µM
[19] = second compound 3.16 µM, first compound 1 µM
[20] = second compound 3.16 µM, first compound 3.16 µM
[21] = second compound 10 µM, first compound 0.0316 µM
[22] = second compound 10 µM, first compound 0.1 µM
[23] = second compound 10 µM, first compound 0.316 µM
[24] = second compound 10 µM, first compound 1 µM
[25] = second compound 10 µM, first compound 3.16 µM
[26] = second compound 0.1 µM, first compound 0.01 µM
[27] = second compound 0.316 µM, first compound 0.01 µM
[28] = second compound 1 µM, first compound 0.01 µM
[29] = second compound 3.16 µM, first compound 0.01 µM
[30] = second compound 10 µM, first compound 0.01 µM
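Note: spheroids exposed to agents for seven days before readout.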

Compound: CCNC(=O)CC1N=C(c2ccc(Cl)cc2)c2cc(OC)ccc2-n2c(C)nnc21 (stereo not given) + C=CC(=O)N1CCN(c2nc(=O)n(-c3c(C)ccnc3C(C)C)c3nc(-c4c(O)cccc4F)c(F)cc23)C(C)C1
- pIC50 (second compound 0.1 µM): > 7.50
- pIC50 (second compound 0.316 µM): > 7.50
- pIC50 (second compound 1 µM): > 7.50
- pIC50 (second compound 3.16 µM): > 7.50
- pIC50 (second compound 10 µM): > 7.50
- viability, T/C [1]: 25.4%
- viability, T/C [2]: 27%
- viability, T/C [3]: 21.2%
- viability, T/C [4]: 14.3%
- viability, T/C [5]: 11.7%
- viability, T/C (second compound 0.1 µM, first compound 10 µM): 10.8%
- viability, T/C [6]: 27.4%
- viability, T/C [7]: 23.8%
- viability, T/C [8]: 20.4%
- viability, T/C [9]: 14.7%
- viability, T/C [10]: 13%
- viability, T/C (second compound 0.316 µM, first compound 10 µM): 10.3%
- viability, T/C [11]: 28.9%
- viability, T/C [12]: 28.7%
- viability, T/C [13]: 21.7%
- viability, T/C [14]: 16.2%
- viability, T/C [15]: 14%
- viability, T/C (second compound 1 µM, first compound 10 µM): 10.7%
- viability, T/C [16]: 30.4%
- viability, T/C [17]: 28%
- viability, T/C [18]: 22.5%
- viability, T/C [19]: 18.3%
- viability, T/C [20]: 11.6%
- viability, T/C (second compound 3.16 µM, first compound 10 µM): 8.77%
- viability, T/C [21]: 34.1%
- viability, T/C [22]: 31.6%
- viability, T/C [23]: 23.4%
- viability, T/C [24]: 15.1%
- viability, T/C [25]: 11%
- viability, T/C (second compound 10 µM, first compound 10 µM): 8.28%

Compound: CC(=O)OC12COC1CC(O)C1(C)C(=O)C(O)C3=C(C)C(OC(=O)C(O)C(NC(=O)OC(C)(C)C)c4ccccc4)CC(O)(C(OC(=O)c4ccccc4)C21)C3(C)C (stereo not given) + CC1OCC2(CCN(c3cnc(Sc4ccnc(N)c4Cl)c(N)n3)CC2)C1N
- pIC50 (second compound 0.1 µM): > 8.00
- pIC50 (second compound 0.316 µM): > 8.00
- pIC50 (second compound 1 µM): > 8.00
- pIC50 (second compound 3.16 µM): > 8.00
- pIC50 (second compound 10 µM): > 8.00
- viability, T/C [26]: 42.3%
- viability, T/C [1]: 34.6%
- viability, T/C [2]: 33.9%
- viability, T/C [3]: 39.2%
- viability, T/C [4]: 39.5%
- viability, T/C [5]: 41.6%
- viability, T/C [27]: 37.1%
- viability, T/C [6]: 34.4%
- viability, T/C [7]: 30.2%
- viability, T/C [8]: 32.1%
- viability, T/C [9]: 37.2%
- viability, T/C [10]: 38.9%
- viability, T/C [28]: 49.8%
- viability, T/C [11]: 52.4%
- viability, T/C [12]: 44%
- viability, T/C [13]: 45.9%
- viability, T/C [14]: 53.4%
- viability, T/C [15]: 54%
- viability, T/C [29]: 24.4%
- viability, T/C [16]: 23.3%
- viability, T/C [17]: 21.5%
- viability, T/C [18]: 27.3%
- viability, T/C [19]: 29.8%
- viability, T/C [20]: 27.4%
- viability, T/C [30]: 26.5%
- viability, T/C [21]: 25.6%
- viability, T/C [22]: 23.1%
- viability, T/C [23]: 24.8%
- viability, T/C [24]: 30.1%
- viability, T/C [25]: 30.2%

Compound: CC(C)n1nc(-c2ccc3oc(N)nc3c2)c2c(N)ncnc21 + C=CC(=O)N1CCN(c2nc(=O)n(-c3c(C)ccnc3C(C)C)c3nc(-c4c(O)cccc4F)c(F)cc23)C(C)C1
- pIC50 (second compound 0.1 µM): > 9.50
- pIC50 (second compound 0.316 µM): > 9.50
- pIC50 (second compound 1 µM): > 9.50
- pIC50 (second compound 3.16 µM): > 9.50
- pIC50 (second compound 10 µM): > 9.50
- viability, T/C (second compound 0.1 µM, first compound 0.000316 µM): 13.2%
- viability, T/C (second compound 0.1 µM, first compound 0.001 µM): 17%
- viability, T/C (second compound 0.1 µM, first compound 0.00316 µM): 8.16%
- viability, T/C [26]: 5.92%
- viability, T/C [1]: 4.43%
- viability, T/C [2]: 3.9%
- viability, T/C (second compound 0.316 µM, first compound 0.000316 µM): 13.8%
- viability, T/C (second compound 0.316 µM, first compound 0.001 µM): 11.7%
- viability, T/C (second compound 0.316 µM, first compound 0.00316 µM): 10.2%
- viability, T/C [27]: 6.98%
- viability, T/C [6]: 4.02%
- viability, T/C [7]: 3.22%
- viability, T/C (second compound 1 µM, first compound 0.000316 µM): 15%
- viability, T/C (second compound 1 µM, first compound 0.001 µM): 11%
- viability, T/C (second compound 1 µM, first compound 0.00316 µM): 9.95%
- viability, T/C [28]: 7.7%
- viability, T/C [11]: 4.43%
- viability, T/C [12]: 5.61%
- viability, T/C (second compound 3.16 µM, first compound 0.000316 µM): 14.2%
- viability, T/C (second compound 3.16 µM, first compound 0.001 µM): 16.4%
- viability, T/C (second compound 3.16 µM, first compound 0.00316 µM): 13.3%
- viability, T/C [29]: 9.65%
- viability, T/C [16]: 6%
- viability, T/C [17]: 6.12%
- viability, T/C (second compound 10 µM, first compound 0.000316 µM): 17.3%
- viability, T/C (second compound 10 µM, first compound 0.001 µM): 16.8%
- viability, T/C (second compound 10 µM, first compound 0.00316 µM): 16.5%
- viability, T/C [30]: 15.2%
- viability, T/C [21]: 11.3%
- viability, T/C [22]: 11.2%
